Test results reported in patent US7732563B2, “Cloning, sequencing and expression of a gene encoding an eukaryotic amino acid racemase, and diagnostic, therapeutic, and vaccination applications of parasite and viral mitogens” (priority 1999, dated 2010).

What was measured:
[1] = tested on: total spleen cells; assay: In vitro proliferation assay of splenocytes (3H-thymidine uptake); type: cell-based, mouse; conditions: for mitogenic activity of rTcPA45 with cultures supplemented with increasing amounts of substrate: 3 mM to 50 mM substrate, dose-dependent, competitive inhibition; for cell proliferation of lymphocytes with substrate alone: 50 mM alone; for mitogenic activity of rTcPA45 after pre-incubation with inhibitor of proline racemase: 50 μg/ml rTcPA45 pre-incubated with 1 mM inhibitor; for 3H-thymidine uptake: after 48 h, ConA 10 μg/ml, LPS 5 μg/ml, BALB/c splenocytes 5×10^4 cells/well
Procedure: Briefly, freshly recovered splenocytes from 8 week old male Balb/c mice seeded at a concentration of 5×10^4 cells/well were incubated for 24, 48 and 72 h in 5% FCS RPMI-1640 medium. A 16 h ^3H-thymidine pulse at 1 μCi/well was performed before harvesting. ^3H-Thymidine uptake was determined in a beta-plate liquid scintillation counter (LKB-Wallac). All points were done in triplicate and the corresponding standard deviation calculated. For comparison, ^3H-thymidine uptake after 48 h in the presence of ConA (10 μg/ml) and LPS (5 μg/ml) was 32000 c.p.m. and 3500 c.p.m., respectively. T-cell depletion was performed by incubating freshly recovered spleen cells for 30 min at 37° C. in the presence of anti-Thy 1.2 monoclonal antibody (Cedarlane) and rabbit complement (Cedarlane). In order to rule out a possible mitogenic effect due to LPS contamination in samples, proliferation assays were also performed on freshly recovered splenocytes from the LPS non-responder mouse strain C3H/Hej. Same levels of proliferation were verified. Balb/c mice were purchased from Charles River, France. C3H/Hej mice were maintained in our animal facilities.
In vitro proliferation is accomplished using freshly recovered splenocytes from BALB/c mice seeded at a density of 5×10^4 cells/well and incubated for 24, 48 and 72 h with increasing concentrations of total parasite supernatants or recombinant TcPa45 protein or other mitogen (0.07-200 μg/ml) with 0.5 μg/ml of the HPLC fractions, or with the conventionally used mitogens concanavalin A (10 μg/ml) and lipopolysaccharide (5 μg/ml) in 5% FCS in RPMI-1640 complete medium. T-cell depletion is accomplished by incubating freshly recovered spleen cells for 30 min. at 37° C. in the presence of monoclonal antibodies against Thy 1.2 and rabbit complement (Cedarlane, Le Perray en Yvelines, France). Analysis of proliferative activity of total splenocytes (5×10^4 cells/well) in the presence of 50 μg/ml enzymatically active rTcPA45 or other mitogen is also compared with the proliferation obtained using the same amounts of rTcPA45 protein or other mitogen lacking racemase activity (by heating for 10 min. at […] or by long term storage at 4° C.). Inhibition of proliferation is obtained by adding to the splenocyte cultures 50 μg/ml rTcPA45 or other mitogen pre-incubated for 10 min. at 37° C. with 1 mM inhibitor, either specific (pyrrole-2-carboxylic acid) or nonspecific (iodoacetamide or iodoacetate). Competitive assays of proliferative activity by 50 μg/ml rtcPA45 or other mitogen are done by adding increasing concentrations of specific substrates i.e., proline racemase substrates (L- or D-proline) for the mitogen rTcPA45 ranging from 3 mM to 50 mM. Controls include the incubation of splenocytes (5×10^4 cells/well) with substrate alone, i.e., 50 mM L- or D-proline in RPMI medium alone for prline racemase. Cultures are collected after a 16-hour pulse or 1 μCi/well ^3H-thymidine uptake was determined in a beta-plate liquid scintillation counter (LKB-Wallac, Orsay, France). All data points are obtained in triplicate and the corresponding standard deviation is calculated.
5×10^5 naive spleen cells/well (96 well plate) were stimulated in vitro with different doses of rTcPA45 (ranging in FIG. 4b from 0.8 to 200 μg/ml final) for 24, 48 and 72 h, at 37° C., 5% CO2. Cultures were pulsed with ^3H-Thymidine (1 μCi/well) for 16-18 h before harvesting. ^3H-thymidine incorporation was obtained after counting using a beta-plate. Results present arithmetic means of c.p.m. (counts/minute) from 6 wells/dose of rTcPA45 or wells containing medium alone (+/−SD of the means). (FIG. 4b)

[2] = molecular target: T1, rTcPA45 proline racemase (Trypanosoma cruzi, UniProt Q4DA80); type: biochemical; conditions: 80 mM L-proline; inhibitors 6 mM to 100 mM
T1 construct: made in house; host or cells: E. coli (pET28b(+))
Procedure: To investigate the genomic organization and transcription of the Tc45 gene, Southern and Northern blot analyses were done. FIG. 4 depicts the results of characterization of rTcPA45 activities. FIG. 4, part a, is an 8% SDS-PAGE gel of rTcPA45 (Coomasie blue staining). Part b depicts the proliferative activity of total splenocytes (5×10^4 cells/well) in the presence of increasing concentrations of rTcPA45 (μg/ml). […] Reaction conditions were: 0.2 M Na-acetate/25 mM β-mercaptoethanol buffer, pH6, rTcPA45 (3 μg/ml), 30 min incubation at 37° C. in 500 μl. The reaction was stopped by incubating for 10 min at 80° C. […] Reactions were carried out for 30 min at 37° C. and stopped for 5 min at 80° C. All reagents and inhibitors were purchased from Sigma. The shift in optical rotation was measured in a Polarimeter 241 MC (Perkin Elmer).
3 μg of rTcPA45 was diluted in 500 μl of buffer (0.2M NaOAc, […] β-mercaptoethanol, pH6.0) containing different concentrations of the substrate (10-80 mM or L- or D-proline). (See FIG. 4c.) The reaction was incubated for 30-60 minutes at 37° C. in a water bath, followed by heat inactivation of the enzyme for 10 minutes at 80° C. Each sample is diluted to 1.5 ml with water and the mixture submitted to measurement of optical rotation using a polarimeter, at 365 nm. A sample without enzyme is used as a control. For optimal pH determination, buffer systems with NaOAc, phosphate, and Tris were used with pH ranging from 4.0-8.2. Curve of temperature was performed between 27° C. to 47° C.
The percent of racemization of different concentrations of L-proline, D-proline, L-hydroxy-proline and D-hydroxy-proline substrates was calculated by incubating a 500-μl mixture of 3 μg TcPA45 and 10-80 mM substrate in 0.2 M sodium acetate and 25 mM β-mercaptoethanol, pH 6, for 30 min at 37° C. The reaction was stopped by incubation for 10 min at 80° C. Water (1 ml) was then added, and the optical rotation was measured in polarimeter 241 MC (Perkin Elmer, Montignyle Bretonneux, France) at a wavelength of 365 nm, in a cell with a path length of 10 cm. The percent inhibition of racemization of 80 mM L-proline was determined in the presence of different concentrations of several specific and nonspecific inhibitors ranging in concentration from 6 mM to 100 mM. The percent racemization of 80 mM L-proline as a function of pH was determined using 0.2 M sodium acetate, potassium phosphate and Tris-HCl buffers containing 25 mM β-mercaptoethanol; reactions were incubated for 30 min at 37° C. as described above. All reagents and inhibitors were purchased from Sigma.

T1 sequence (Q4DA80 30-423): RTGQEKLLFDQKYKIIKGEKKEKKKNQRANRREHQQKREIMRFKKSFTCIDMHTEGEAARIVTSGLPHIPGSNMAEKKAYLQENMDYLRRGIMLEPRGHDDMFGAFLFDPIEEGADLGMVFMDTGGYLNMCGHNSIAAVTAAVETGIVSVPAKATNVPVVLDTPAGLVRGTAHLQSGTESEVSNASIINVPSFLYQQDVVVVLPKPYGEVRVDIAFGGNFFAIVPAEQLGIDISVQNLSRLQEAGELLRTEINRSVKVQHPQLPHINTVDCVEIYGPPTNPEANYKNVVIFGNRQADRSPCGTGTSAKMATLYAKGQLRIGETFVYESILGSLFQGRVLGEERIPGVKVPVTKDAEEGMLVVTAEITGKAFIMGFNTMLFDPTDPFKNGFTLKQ

O=C(O)[C@H]1CCCN1 [D-proline]
mitogenic activity of rTcPA45 with cultures supplemented with increasing amounts of substrate [1]: affected considerably
cell proliferation of lymphocytes with substrate alone [1]: no cell proliferation

O=C(O)[C@@H]1CCCN1 [L-proline]
mitogenic activity of rTcPA45 with cultures supplemented with increasing amounts of substrate [1]: affected considerably
cell proliferation of lymphocytes with substrate alone [1]: no cell proliferation

NC(=O)CI [iodoacetamide, reference compound]
inhibition of rTcPA45 enzymatic (racemase) activity [2]: inhibited to different extents
mitogenic activity of rTcPA45 after pre-incubation with inhibitor of proline racemase [1]: abolished

O=C(O)CI [iodoacetate, reference compound]
inhibition of rTcPA45 enzymatic (racemase) activity [2]: inhibited to different extents
mitogenic activity of rTcPA45 after pre-incubation with inhibitor of proline racemase [1]: abolished

O=C(O)/C=C\C(=O)O [maleic acid, reference compound]
inhibition of rTcPA45 enzymatic (racemase) activity [2]: inhibited to different extents

O=C(O)c1ccc[nH]1 [pyrrole-2-carboxylic acid, reference compound]
inhibition of rTcPA45 enzymatic (racemase) activity [2]: inhibited to different extents
mitogenic activity of rTcPA45 after pre-incubation with inhibitor of proline racemase [1]: abolished

concanavalin A [ConA]
3H-thymidine uptake [1]: 32000 c.p.m.
3H-thymidine uptake ([1]; listed as concavalin A): 32,000 c.p.m.

lipopolysaccharide [LPS]
3H-thymidine uptake [1]: 3500 c.p.m.
3H-thymidine uptake ([1]; listed as lipopolysaccharide): 3,500 c.p.m.
